“Also recorded” adds a separate entry of the source.
Test system: 5TGM1 tumors
Assay: In vivo tumor growth analysis
Design: species or system mouse
Method: (§1) 6-week old female immunodeficient NOD.CB17-Prkdcscid/NCrCrl (NOD/SCID) mice (Charles River) and immunocompetent C57BL/KaLwRijHsd (Envigo) mice were housed in an animal facility at the Dana-Farber Cancer Institute (DFCI). All experiments were performed after approval by the Animal Ethics Committee of the DFCI and performed using institutional guidelines.
To assess the effect of BTZ in the absence of an immune system, NOD/SCID mice were subcutaneously injected with 1×10^6 5TGM1 WT cells in a 1:1 ratio with Matrigel® (Corning); to assess BTZ in an immunocompetent host, C57BL/KaLwRijHsd mice were injected with 1×10^6 5TGM1 either WT or calrKO in the same ratio with Matrigel®. When tumor became measurable, mice (5/group) were randomized to receive either PBS or BTZ administered intra peritoneally (i.p.) 0.5 mg/kg twice/week for 2 weeks. Tumor sizes were measured and mice were sacrificed when tumors reached 2 cm in diameter or ulceration or major compromise in quality of life. A parallel experiment was performed to allow for tumor harvesting after two injections i.p. of BTZ for RNA-seq analysis, as detailed below.
as §1, with “(NOD/SCID)” for “(NOD/SCID) mice”, “in the” for “in an”, “at DFCI.” for “at the Dana-Farber Cancer Institute (DFCI).”
NOD/SCID and C57BL/KaLwRijHsd mice were subcutaneously (sc) injected with 1×10^6 5TGM1 either WT or Calr^KO cells in PBS. When tumor became measurable, mice were randomized to receive either PBS or BTZ administered intra peritoneally (i.p.) 0.5 mg/kg twice/week for 2 weeks. Tumor sizes were measured as previously described (46), and mice were sacrificed when tumors reached 2 cm in diameter or ulceration or major compromise in quality of life. A parallel experiment was performed to allow for tumor harvesting after two injections ip of BTZ for RNA-seq analysis, as detailed below. For BTZ and STING agonist combination studies, C57BL/KaLwRijHsd (n=5/group) and SCID/NOD (n=6/group) mice bearing 5TGM1 WT and C57BL/KaLwRijHsd mice (n=5/group) bearing 5TGM1 Sting^KO tumors were randomized to receive: PBS, BTZ (0.375 mg/kg twice a week for 2 weeks, i.p.), ADU-S100 (100 μg) administered in the peritumoral area (day 1 and 2), or a combination. Tumor sizes were measured as described above. A parallel experiment in C57BL/KaLwRijHsd mice was performed to allow for tumor harvesting after one administration of either BTZ or ADU-S100. Tumors were fixed in 10% formalin for 24 h, and then maintained in 70% ethanol prior to paraffin embedding and processing for IHC to detect CD3 (#nb600 Ab, Novus Bio).

CC(C)C[C@H](NC(=O)[C@H](Cc1ccccc1)NC(=O)c1cnccn1)B(O)O [BTZ, bortezomib]
tumor growth (5TGM1 Calr^KO tumors in immunocompetent mice, BTZ 0.5 mg/kg twice/week for 2 weeks): antagonized in CALR^KO tumors; also recorded: abrogated in mice bearing CRT^KO tumors; also recorded: abrogated in immunocompetent mice bearing 5TGM1 Calr^KO tumors
anti-tumor activity (5TGM1 Sting^KO tumors in immunocompetent mice): significantly abrogated against tumors lacking Sting; also recorded: significantly reduced in vivo against multiple myeloma tumors lacking Sting
tumor growth (5TGM1 WT in immunocompetent C57BL/KaLwRij mice, BTZ 0.5 mg/kg twice/week for 2 weeks i.p.): induces tumor regression in the presence of the immune system; also recorded: more potent 5TGM1 tumor cell shrinkage in immunocompetent hosts; also recorded: inhibited growth of 5TGM1 WT cells engrafted in immunocompetent (C57BL/KaLwRij) mice (FIG. 19A) to a greater extent than when these cells were engrafted in immunodeficient hosts; also recorded: induces ICD in a syngeneic murine model of MM
anti-tumor effects (5TGM1 WT in immunodeficient NOD/SCID mice, BTZ 0.375 mg/kg, ADU-S100 100 ug day 1 and 2): abrogated the anti-tumor effects
tumor growth (5TGM1 WT in immunodeficient SCID/NOD mice, BTZ 0.5 mg/kg twice/week for 2 weeks i.p.): can efficiently delay tumor growth in immunodeficient mice

Reference: patent US12109266B2, “Modulating gabarap to modulate immunogenic cell death” (Dana-Farber Cancer Institute, Inc., priority 2020, dated 2024)
